Data: US20090053294A1, “Anti Mineralocorticoid Therapy of Infection” (priority 2005, published 2009)

Columns and labels:
[1] = biological target: T1, progesterone receptors (Homo sapiens, UniProt P06401); conditions: cited from earlier work
T1 sequence (P06401 1-933): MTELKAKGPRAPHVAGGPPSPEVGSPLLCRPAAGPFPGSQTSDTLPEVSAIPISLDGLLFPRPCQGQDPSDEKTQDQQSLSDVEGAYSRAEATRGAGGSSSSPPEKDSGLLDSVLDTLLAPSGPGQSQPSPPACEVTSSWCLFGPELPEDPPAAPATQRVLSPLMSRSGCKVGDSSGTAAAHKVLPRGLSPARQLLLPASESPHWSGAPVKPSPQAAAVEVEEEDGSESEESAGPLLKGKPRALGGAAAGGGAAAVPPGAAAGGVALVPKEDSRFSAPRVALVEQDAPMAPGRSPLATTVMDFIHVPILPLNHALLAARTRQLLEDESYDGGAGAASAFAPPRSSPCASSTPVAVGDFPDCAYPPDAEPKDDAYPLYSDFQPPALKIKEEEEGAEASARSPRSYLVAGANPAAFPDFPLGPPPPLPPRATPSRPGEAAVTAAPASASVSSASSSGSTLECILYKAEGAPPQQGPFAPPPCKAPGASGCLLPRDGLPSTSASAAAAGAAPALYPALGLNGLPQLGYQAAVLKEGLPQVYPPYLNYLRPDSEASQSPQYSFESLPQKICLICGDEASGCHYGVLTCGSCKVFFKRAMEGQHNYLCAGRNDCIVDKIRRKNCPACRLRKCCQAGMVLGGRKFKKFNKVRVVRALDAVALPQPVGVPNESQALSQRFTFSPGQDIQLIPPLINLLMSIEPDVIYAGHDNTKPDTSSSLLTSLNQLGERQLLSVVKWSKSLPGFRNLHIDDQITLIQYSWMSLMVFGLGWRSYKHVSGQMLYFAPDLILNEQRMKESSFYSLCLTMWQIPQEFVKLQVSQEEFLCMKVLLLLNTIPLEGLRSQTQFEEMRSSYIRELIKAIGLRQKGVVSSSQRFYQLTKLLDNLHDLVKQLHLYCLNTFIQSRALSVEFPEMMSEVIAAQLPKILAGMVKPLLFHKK

[2] = 50 mg dose; cited from earlier work
[3] = test system: fresh human peripheral blood lymphocytes (PBL); format: cell-based
[4] = test system: monocytotropic HIV-1 isolates; experiment: Anti-HIV activity in fresh human monocyte-macrophages (p24 ELISA); format: cell-based; conditions: MOI 0.1, p24 ELISA day 7 post-infection
Experimental: (§1) For isolation of adherent cells, 3×10^6 non-PHA stimulated peripheral blood cells are resuspended in Hanks buffered saline (with calcium and magnesium) supplemented with 10% human AB serum. The cells are placed in a 96-well microtiter plate at 37° C. for 2 hours. Non-adherent cells are removed by vigorously washing six times. The adherent cells are cultured for 7 days in RPMI 1640 tissue culture medium with 15% fetal bovine serum. The cultures are carefully monitored for confluency during this incubation period. Infection of the cells is performed with monocytotropic HIV-1 isolates. High titer pools of each of these viruses are harvested from Infected cultures of peripheral blood adherent cells and frozen in 1.0 ml aliquots at […]. […] Compounds to be evaluated in the monocyte-macrophage assay are added to the monolayers shortly before infection in order to maximize the potential for identifying active compounds.
(§2) At 2 days post-infection, the medium is decanted and the cultures washed twice with complete medium in order to remove excess virus. […] Control curves are generated in each assay to accurately quantitate the amount of capsid protein in each sample. Data is obtained by spectrophotometric analysis at 450 nm using a Molecular Devices Vmax plate reader. P24 concentrations are calculated from the optical density values by use of the Molecular Device software package Soft Max.

[5] = test system: fresh human monocyte-macrophages; experiment: Cytotoxicity in monocyte-macrophages (XTT staining); format: cell-based; conditions: XTT staining day 7 post-infection
Experimental: as §1, §2

[6] = test system: HIV-1; conditions: PBL, MOI 0.2, day 7, RT activity in supernatant
Experimental: Fresh human peripheral blood lymphocytes (PBL) are isolated from voluntary Red Cross donors, seronegative for HIV and HBV. Leukophoresed blood is diluted 1:1 with Dulbecco's phosphate buffered saline (PBS) and layered over 14 mL of Ficoll-Hypaque density gradient in a 50mi centrifuge tube. Tubes are then centrifuged for 30 minutes at 600 Xg. Banded PBLs are gently aspirated from the resulting interface and subsequently washed 2× with PBS by low speed centrifugation. After final wash, cells are enumerated by trypan blue exclusion are re-suspended at 1×10^7/ml in RPMI 1640 with 15% fetal bovine serum (FBS), 2 mM L-glutamine, 4 ug/ml PHA-P and allowed to incubate for 48-72 hours at 37″C. After incubation, PBLs are centrifuged and reset in RPMI 1640 with 15% FBS, 2 mM L-glutamine, 100 U/ml penicillin, 100 ug/ml streptomycin, 10 ug/ml gentamycin, and 20 U/ml recombinant human IL-2. PBLs are maintained in this medium at a concentration. of 1-2×10^6/ml with biweekly medium changes, until use in assay protocol. […]
In the standard PBL assay (MOI: 0.2), the assay is ended on day 7 following collection of cell free supernatant samples for reverse transcriptase activity assay. […] Opti-Fluor O is added to each filter mat, and incorporated radioactivity is quantitated utilizing a Wallac 1450 Microbetaplus liquid scintillation counter. […]

[7] = in vivo; cited from earlier work

Structure (SMILES) | binding affinity for progesterone receptors [1] | Na+/K+ effect [2] | health / cell growth of T-lymphocyte cultures [3] | HIV-1 levels in macrophages [4] | cell viability in macrophages [5] | % HIV-1 levels / viral replication in T-lymphocyte cultures [6] | extent of metabolism [7]
COC(=O)[C@@H]1CC2=CC(=O)CC[C@]2(C)[C@@]23O[C@@H]2C[C@@]2(C)[C@@H](CC[C@@]24CCC(=O)O4)[C@H]13 [Epoxymexrenone, epoxymexrenone] | reduced | equipotent with spironolactone | – | – | – | – | –
C[C@]12CCC(=O)C=C1C=C[C@@H]1[C@@H]2CC[C@@]2(C)[C@H]1CC[C@@]2(O)CCC(=O)O [potassium canrenoate] | – | – | remain healthy at all concentrations | decreased in a dose dependent fashion | little effect on cell viability | decreased in a dose dependent manner | –
CC(=O)S[C@@H]1CC2=CC(=O)CC[C@]2(C)[C@H]2CC[C@@]3(C)[C@@H](CC[C@@]34CCC(=O)O4)[C@H]12 [spironolactone, 17-hydroxy-7-alpha-mercapto-3oxo-17-alpha-pregn-4ene-21-carboxylic acid gamma-lactone acetate] | – | – | remain healthy at all concentrations | – | – | decreased in a dose dependent manner | extensively metabolised
